Activity, IC50 and UI data for 13 compounds are collected here from ChEMBL document CHEMBL4842336, “Synthesis and computational studies of novel fused pyrimidinones as a promising scaffold with analgesic, anti-inflammatory and COX inhibitory potential” (Eur J Med Chem, 2021).

Series [1] relates to Rattus norvegicus. In words: Analgesic activity against p-benzoquinone induced writhing in albino rat model assessed as protection rate at 28 uM/kg, ip measured after 30 mins relative to control. The class given is functional. The conditions noted are these: 0.5 h, at 28 µmol/kg. On the technique in general: An intraperitoneal irritant provokes the stretching counted in writhing tests.

Series [2] concerns Rattus norvegicus. In words: Analgesic activity against p-benzoquinone induced writhing in albino rat model assessed as protection rate at 28 uM/kg, ip measured after 30 mins relative to indomethacin. Format: functional. The conditions noted are these: 0.5 h, at 28 µmol/kg.
Series [3] can be described thus: Ulcerogenic activity in fasted albino rat assessed as number of ulcers at 28 uM/kg, po administered for 3 consecutive days (reference value: 0 %). Format: toxicity, organism-based. Conditions: in vivo, 72 h, time 3 day.
Series [4] concerns Rattus norvegicus. In words: Anti-inflammatory activity in Wistar albino rat model of carragenan-induced paw edema assessed as reduction in edema thickness at 28 uM/kg, ip measured after 3 hrs by plethysmometer (reference value: 1.64 +/- 0.04 millimeter). Format: functional. More on the design: scale not given: the % may be the effect or the level left. Conditions: at 28 µmol/kg.

Series [5] deals with Rattus norvegicus. The series is described as follows: Anti-inflammatory activity in Wistar albino rat model of carragenan-induced paw edema assessed as inhibition of inflammation at 28 uM/kg, ip measured after 2 hrs by plethysmometer relative to control. Format: functional.
Series [6] can be described thus: Ulcerogenic activity in fasted albino rat assessed as incidence of ulceration at 28 uM/kg, po administered for 3 consecutive days (reference value: 0 %). Format: toxicity, organism-based. The conditions noted are these: in vivo, 72 h, time 3 day.
Series [7] deals with Rattus norvegicus. In words: Anti-inflammatory activity Wistar albino rat model of carragenan-induced paw edema assessed as inhibition of inflammation at 28 uM/kg, ip measured after 3 hrs by plethysmometer relative to control. The class given is functional. More on the design: scale not given: the % may be the effect or the level left. Conditions: at 28 µmol/kg.
Series [8] has as its target T1, Prostaglandin G/H synthase 1 (Ovis aries, UniProt P05979).
T1 sequence (P05979 whole entry): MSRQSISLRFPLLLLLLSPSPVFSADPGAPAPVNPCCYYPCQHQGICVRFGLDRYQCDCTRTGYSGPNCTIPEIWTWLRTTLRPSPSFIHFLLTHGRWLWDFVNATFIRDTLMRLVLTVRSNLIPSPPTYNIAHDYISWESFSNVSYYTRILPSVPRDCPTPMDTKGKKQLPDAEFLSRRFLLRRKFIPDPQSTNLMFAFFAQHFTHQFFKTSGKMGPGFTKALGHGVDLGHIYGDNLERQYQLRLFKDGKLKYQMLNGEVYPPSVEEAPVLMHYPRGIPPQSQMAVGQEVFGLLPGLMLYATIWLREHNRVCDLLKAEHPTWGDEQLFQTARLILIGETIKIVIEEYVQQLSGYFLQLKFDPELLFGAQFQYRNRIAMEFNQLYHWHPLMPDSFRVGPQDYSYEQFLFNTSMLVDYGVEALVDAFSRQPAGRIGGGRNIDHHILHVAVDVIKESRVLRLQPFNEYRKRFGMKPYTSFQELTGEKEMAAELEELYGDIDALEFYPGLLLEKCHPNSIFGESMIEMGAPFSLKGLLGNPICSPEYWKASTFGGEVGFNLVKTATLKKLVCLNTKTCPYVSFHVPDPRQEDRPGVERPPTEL
The series is described as follows: Inhibition of ovine COX-1 using arachidonic acid as substrate by fluorescence assay.

A short description of series [9]: Toxicity in albino rat assessed as decrease in body weight at. The conditions noted are these: in vivo, 24 h, dose <140 µM/Kg.
The test system of series [10] is Rattus norvegicus. The series is described as follows: Anti-inflammatory activity in Wistar albino rat model of carragenan-induced paw edema assessed as reduction in edema thickness at 28 uM/kg, ip measured after 2 hrs by plethysmometer (Rvb =1.6 +/- 0.12 millimeter). Format: functional.
Series [11] in a line: Ulcerogenic activity in fasted albino rat assessed as severity of ulcers at 28 uM/kg, po administered for 3 consecutive days (reference value: 0 %). Conditions: in vivo, 72 h, time 3 day. Format: toxicity, organism-based.
Series [12] can be described thus: Ulcerogenic activity in fasted albino rat assessed as ulcer index at 28 uM/kg, po administered for 3 consecutive days (reference value: 0). Format: toxicity, organism-based. The conditions noted are these: in vivo, 72 h, time 3 day.

What is called IC50 is the concentration that gives 50% inhibition.

For `Cc1nc2oc(-c3ccc(Cl)cc3)nn2c(=O)c1CCN1CCOCC1`, the Activity in the series with Rattus norvegicus [1] is 66%; in the series with Rattus norvegicus [2] it was 80%.

With `COc1ccc(N2CCN(CCc3c(C)nc4oc(-c5ccccc5)nn4c3=O)CC2)cc1`, the Activity in the series with Rattus norvegicus [1] is on record as 100%; in series [3] it was 0.8%; in the series on Rattus norvegicus [4], 73.12%; in the series on Rattus norvegicus [2] it was 120%; with Rattus norvegicus [5] it was 0.62 mm; in series [6] it was 2%. In addition, the Activity is 61.7% in the series with Rattus norvegicus [7], “Non-Toxic” in series [9], 0.43 mm with Rattus norvegicus [10] and 1% in [11]. The IC50 in [8] is 140 nM. In series [12], the UI is 3.8.

Take `Cc1nc2sc(-c3ccc(Cl)cc3)nn2c(=O)c1CCN1CCCCC1`: the Activity amounted to 50% in the series with Rattus norvegicus [1] and 60% with Rattus norvegicus [2].

In the case of `COc1ccc(N2CCN(CCc3c(C)nc4sc(-c5ccc(Cl)cc5)nn4c3=O)CC2)cc1`, the Activity stood at 66% in the series on Rattus norvegicus [1] and 60% with Rattus norvegicus [2].

In the case of `Cc1nc2oc(-c3ccccc3)nn2c(=O)c1CCN1CCOCC1`, the Activity in the series on Rattus norvegicus [1] came out at 50%; in the series on Rattus norvegicus [2], 60%.

In the case of `Cc1nc2oc(-c3ccccc3)nn2c(=O)c1CCN1CCN(c2ccccc2)CC1`, the Activity with Rattus norvegicus [1] worked out at 50%; with Rattus norvegicus [2], 60%.

Regarding `Cc1nc2sc(-c3ccc(Cl)cc3)nn2c(=O)c1CCN1CCN(c2ccccc2)CC1`, the Activity worked out at 66% in the series on Rattus norvegicus [1] and 60% in the series on Rattus norvegicus [2].

In the case of `COc1ccc(N2CCN(CCc3c(C)nc4oc(-c5ccc(Cl)cc5)nn4c3=O)CC2)cc1`, the Activity in the series with Rattus norvegicus [1] was determined as 83%; in [3], 0.8%; in the series with Rattus norvegicus [4], 73.12%; with Rattus norvegicus [2], 100%; in the series with Rattus norvegicus [5] it was 0.14 mm; in series [6], 4%. In addition, the Activity is 91% in the series with Rattus norvegicus [7], “Non-Toxic” in series [9], 0.43 mm with Rattus norvegicus [10] and 1% in series [11]. This compound also yielded an IC50 in [8] of 350 nM. Besides, in series [12], the UI amounted to 5.8.

Regarding `Cc1nc2oc(-c3ccc(Cl)cc3)nn2c(=O)c1CCN1CCCCC1`, the figures for the Activity in the series with Rattus norvegicus [1] and in the series with Rattus norvegicus [2] were 66% and 80%, respectively.

On to `Cc1nc2sc(-c3ccc(Cl)cc3)nn2c(=O)c1CCN1CCOCC1`, for which the Activity with Rattus norvegicus [1] was 66%; with Rattus norvegicus [2] it was 80%.

For `Cc1nc2oc(-c3ccccc3)nn2c(=O)c1CCN1CCCCC1`, the Activity with Rattus norvegicus [1] turned out to be 83%; in series [3], 2.2%; with Rattus norvegicus [4], 76.25%; with Rattus norvegicus [2] it was 100%; in the series with Rattus norvegicus [5] it was 0.7 mm; in series [6], 4%. Besides, the Activity is given as 56.16% in the series on Rattus norvegicus [7], “Non-Toxic” in series [9], 0.38 mm in the series on Rattus norvegicus [10] and 1.2% in [11]. In [8], this compound displayed an IC50 of 350 nM. In [12], the UI worked out at 7.4.

Consider `Cc1nc2oc(-c3ccc(Cl)cc3)nn2c(=O)c1CCN1CCN(c2ccccc2)CC1`, for which the Activity in the series with Rattus norvegicus [1] was found to be 83%; in [3] it was 0.6%; in the series with Rattus norvegicus [4], 94.75%; in the series on Rattus norvegicus [2], 100%; with Rattus norvegicus [5], 0.48 mm; in series [6], 4%. Moreover, the Activity in the series with Rattus norvegicus [7] is 70.73%; in series [9], “Non-Toxic”; in the series with Rattus norvegicus [10], 0.08 mm; in series [11], 1%. Moreover, half-maximal inhibition in series [8] (IC50) was put at 148 nM. In series [12], the UI was 5.6.

`COc1ccc2c(c1)c(CC(=O)O)c(C)n2C(=O)c1ccc(Cl)cc1` [INDOMETHACIN]: the Activity was determined as 83% in the series with Rattus norvegicus [1]; 2.6% in [3]; 73.29% in the series with Rattus norvegicus [4]; 100% with Rattus norvegicus [2]; 0.55 mm with Rattus norvegicus [5]; 8% in [6]. The Activity in the series on Rattus norvegicus [7] is 66.46%; in the series with Rattus norvegicus [10], 0.42 mm; in series [11], 1.18%. The UI in [12] is 11.78.
